In patent US7148250B2, “Indoles as NAALADase inhibitors” (Guilford Pharmaceuticals Inc., priority 2001, dated 2006):
Where a SMILES comes first, the peptide text is derived from it.

Key:
ischemic cell cultures = assay: Effect of NAALADase inhibition on TGF-β in in vitro ischemia model; type: cell-based
Procedure: A NAALADase inhibitor, Compound C, was added to ischemia cell cultures to determine its effect on TGF-β levels during stroke.
TGF-β neutralizing antibodies were then added to the ischemic cell cultures.

[1] = tested on: rats subjected to middle cerebral artery occlusion; assay: Effect of NAALADase inhibition on TGF-β in in vivo ischemia model (MCAO); parameters: species or system rat
From the text: The effect of TGF-β neutralizing antibodies on the neuroprotective effect of Compound C was also studied in rats following MCAO.

[2] = tested on: chronic constrictive injury-induced rats; assay: Neuropathic pain in chronic constriction injury (CCI) model; type: in vivo, rat; settings: 50 mg/kg i.p. daily from 10 days post surgery, significant from 11 days of treatment
Procedure: Sciatic nerve ligation, consisting of 4 ligatures tied loosely around the sciatic nerve at 1 mm intervals proximal to the nerve trifurcation, was performed on rats. […] The rats were habituated to a Hargreaves apparatus. An infrared heat source was directed onto the dorsal surface of each rat's hindpaws and the time taken for the rat to withdraw its paws was noted. The difference in scores between the latency of the response for the paw on the operated side versus the paw on the unoperated control side was determined.
The rats received either Compound C (50 mg/kg i.p. daily) or a vehicle starting 10 days post surgery. […] Normal (unoperated) rats had approximately equal latencies for both paws. This effect was significant starting at 11 days of drug treatment and persisted through to the end of the study (for 21 days of daily dosing).

NAALADase = settings: read-out: Km of NAALADase for NAAG; cited from earlier work
STZ-diabetic rats [3] = assay: Neuropathic pain in STZ model (thermal withdrawal latency); type: in vivo, rat; settings: 10 mg/kg i.p. daily, treatment from 45 days post STZ
Procedure: Male Sprague-Dawley rats (200–225 g) were rendered diabetic by intravenous administration of streptozotocin (“STZ”, 70 mg/kg in phosphate buffered saline). Diabetic animals were divided into five groups: one group receiving Compound A (10 mg/kg or 1 mg/kg), Compound D (10 mg/kg or 1 mg/kg) or vehicle. Another group of animals (non-STZ treated) served as non-diabetic controls. Drug/vehicle treatment was started in diabetic animals 45 days post-STZ administration. STZ-induced diabetic rats were tested for sensitivity to a heat source as soon as blood glucose levels rose to 320 mg/dl or above (30 days post STZ). The rats were then acclimated to a Hargreaves apparatus and thermal nociception was monitored using an infrared heat source directed into the dorsal surface of the hindpaw, and the time taken for the animal to remove its paw noted to the nearest 0.1 seconds (see Hargreaves et al., supra, for detailed experimental method). The intensity of the beam source was adjusted such that the mean latency for control animals (non-STZ treated) was approximately 10 seconds. Each animal was tested 8 times and the mean difference score (between mean non-diabetic control latency and mean diabetic latency) are graphically presented in FIGS. 7A and 7B.

BB/W diabetic rats = assay: Progression of neuropathic pain and nerve conduction deficits in BB/W model; type: in vivo, rat
From the text: Male BB/W rats (BRI, Mass) spontaneously develop a cell mediated autoimmune destruction of pancreatic B cells, resulting in onset of insulin-dependent (Type I) diabetes (Guberski 1994). […] This renders them valuable for experimental trials of new compounds for future treatments of this major disorder. In the present study, Compound D and Compound A were examined for their ability to alter the progression of diabetic neuropathy. The rats received daily injection of Compound D or Compound A (10 mg/kg i.p.) or vehicle, starting at the onset of diabetes (hyperglycemia) and up to 6 months thereafter. Another group of non-diabetic rats also receiving vehicle were tested. All animals were continuously monitored for body weight, urine volume, blood sugar and glycated haemoglobin. In the first month of the study, all animals were tested for thermal nociception in a Hargreaves apparatus, weekly. After the first month this was done biweekly and then monthly. The testing consists of directing an infrared heat source onto the dorsal surface of the rat hindpaw and noting the time taken for the animal to remove its paw (see Hargreaves et al., supra, for a description of the experimental method). Each animal was tested 8 times and the mean withdrawal latency noted.
Nerve conduction velocity was also measured every two weeks through the first eight weeks of treatment and every month thereafter through to the six months of treatment (see De Koning et al., Peptides, Vol. 8, No. 3, pp. 415–22 (1987) for a description of the experimental method). […] This was apparent starting at 8 weeks of treatment and persisted to a similar degree through to the six month termination point of the study.

STZ-diabetic rats [4] = assay: Diabetic neuropathy in STZ model (nerve conduction velocity); type: in vivo, rat; settings: 10 mg/kg daily, 4, 8 and 12 weeks
Procedure: Motor and sensory nerve conduction velocity was also measured in STZ-diabetic animals after 4, 8 and 12 weeks of treatment (see De Koning et al., supra, for a description of the experimental method). Briefly, stimulating needle electrodes were inserted close to the sciatic and tibial nerves with recording electrodes being placed subcutaneously over the distal foot muscles, in anesthetized rats.

transgenic G1H mice = assay: Effect on onset of ALS in transgenic FALS mice; type: in vivo, mouse
Procedure: The effect of NAALADase inhibitors on the onset of ALS was tested using the transgenic mice model of familial Amyotrophic Lateral Sclerosis (FALS), which is detailed in Gurney, M., Annals of Neurology (1996) 39:147–157, and otherwise well known in the art. One month old transgenic G1H mice were treated with daily intraperitoneal injections of a vehicle (50 mM HEPES-buffered saline) or a NAALADase inhibitor (50 mg/kg Compound A). Clinical symptoms of the mice were monitored daily. The onset of clinical disease was scored by examining each mouse for its shaking of limbs when suspended in the air by its tail, cross spread of spinal reflexes, hindlimb paralysis, body weight and wheel running activity.

[5] = tested on: Brown Norway rats with unilateral elevation of intraocular pressure; assay: Experimental rat glaucoma (IOP elevation), optic nerve fiber counting; type: in vivo; settings: 8 week group, 10 mg/kg i.p. daily
Procedure: (§1) All experiments complied with the Association for Research in Vision and Ophthalmology Statement for the Use of Animals in Ophthalmic and Vision Research. 82 male Brown Norway rats (Rattus norvegicus), each weighing approximately 250 gm, were treated using procedures approved by the Animal Care Committee of the Johns Hopkins University School of Medicine. The rats were housed with a 12 hour light/12 hour dark cycle and fed ad libitum.
EXPERIMENTAL GLAUCOMA: Unilateral elevation of intraocular pressure (“IOP”) was produced in 56 rats by microinjection of hypertonic saline into episcleral veins, following procedures described in Morrison, J. et al., IOVS (March 1998) 39:526–531. Beginning on the day of IOP elevation, the rats were treated daily with intraperitoneal injections of either a vehicle (23 rats with 50 mM HEPES-buffered saline) or a NAALADase inhibitor (11 rats with 10 mg/kg of Compound A and 22 rats with 10 mg/kg of Compound B). 11 saline treated rats, 11 Compound A treated rats and 11 Compound B treated rats were sacrificed at 8 weeks, and the remaining rats at 12 weeks, after initial IOP elevation.
(§2) OPTIC NERVE COUNTING: The rats were sacrificed by exsanguination under deep pentobarbital anesthesia. They were perfused through the heart with 2% paraformaldehyde/2% glutaraldehyde in 0.1 M phosphate buffer, pH 7.2, and the eyes with attached optic nerves were removed. A cross-section of the optic nerve from both experimental (glaucoma or transection) and control eyes was removed 1.5 mm posterior to the globe, 1 mm in thickness, and post-fixed in 2% osmium tetroxide in buffer. These were processed into epoxy resin, sectioned at 1 micron and stained with toluidine blue.
(§3) The area of the optic nerve cross-section was measured by outlining its outer border at 10× magnification on an image analysis system (Universal Imaging Corp., Westchester, Pa.) with Synsys digital camera and Metamorph software. Three area measurements were taken and the mean value was determined. To measure the density and fiber diameter distributions, images were captured with a 100× phase contrast objective from 10 different areas of each nerve. These were edited to eliminate non-neural objects and the size of each axon internal to the myelin sheath (its minimum diameter) and the density of axons/square mm were calculated for each image and nerve. The mean density was multiplied by total nerve area to yield fiber number for each nerve. The total fiber number in glaucoma or transection nerves was compared to the normal, fellow eye of each rat to yield a percent loss value. The number of axons counted among the 10 images was an approximately 20% sample of the 80–90,000 axons in normal rat nerves. The person measuring axon number was masked to the protocol conducted on the nerves.

[6] = tested on: Brown Norway rats with unilateral optic nerve transection; assay: Optic nerve transection, optic nerve fiber counting; type: in vivo, Rattus norvegicus; settings: for FIBER NUMBER ± SEM / PERCENT DIFFERENCE ± SEM in fiber number between transected and normal eye: 10 mg/kg i.p. daily
Procedure: as §1
OPTIC NERVE TRANSECTION: The optic nerve was transected unilaterally in 26 rats under intraperitoneal pentobarbital anesthesia. The conjunctiva was opened with scissors and the optic nerve exposed by traction on extraocular muscles. The transection was performed with microscissors 5 mm posterior to the globe, with specific attention to avoidance of injury to major ocular blood vessels. Immediately after transection, the retina was examined ophthalmoscopically to assure that the retinal arterial blood supply was not disrupted. The conjunctiva was closed with absorbable suture and the eye dressed with antibiotic ointment. Beginning on the day of transection, the rats were treated daily with intraperitoneal injections of either a vehicle (9 rats with 50 mM HEPES-buffered saline) or a NAALADase inhibitor (8 rats with 10 mg/kg of Compound A and 9 rats with 10 mg/kg of Compound B). 5 saline treated rats, 3 Compound A treated rats and 4 Compound B treated rats were sacrificed at 2 weeks, and the remaining rats at 4 weeks, after transection.
as §2, §3

[7] = 2 weeks survival after transection
[8] = 4 weeks survival after transection

## O=C(O)CCC(CP(=O)(O)O)C(=O)O (centres unmarked) [Compound C, 2-(phosphonomethyl)-pentanedioic acid]
Ischemic cell cultures; FIG. 1
  TGF-β1 concentrations in ischemic cell cultures: increased concentrations
Ischemic cell cultures; FIG. 2
  TGF-β2 concentrations in ischemic cell cultures: increased concentrations
Ischemic cell cultures; in vitro ischemia model, FIG. 3
  neuroprotective effect after addition of TGF-β neutralizing antibodies: blocked
Ischemic cell cultures; in vitro ischemia model, FIG. 4
  neuroprotective effect after addition of FGF antibody: did not block
[1]; FIG. 5
  neuroprotective effect in vivo with TGF-β neutralizing antibodies: significantly attenuated
[1]; microdialysis, FIG. 6
  TGF-β1 levels during occlusion and reperfusion: significant rise
[2]
  difference scores between the two paws (withdrawal latency): dramatically normalized

## CC(=O)N[C@@H](CC(=O)O)C(=O)N[C@@H](CCC(=O)O)C(=O)O [NAAG, N-acetyl-aspartyl-glutamate] (Ac-Asp-Glu-OH)
NAALADase
  Km: 0.54 µM

## O=C(O)CCC(CP(=O)(O)Cc1c(F)c(F)c(F)c(F)c1F)C(=O)O (centres unmarked) [Compound A]
STZ-diabetic rats [3]
  hyperalgesic response (withdrawal latency difference score): completely reversed
BB/W diabetic rats; 10 mg/kg daily, from 8 weeks to six months
  nerve conduction velocity deficits versus diabetic vehicle controls: significantly less severe nerve conduction deficits
BB/W diabetic rats; 10 mg/kg i.p. daily, from 4 weeks through six months of treatment
  withdrawal latency versus diabetic vehicle-treated rats: longer withdrawal latencies
STZ-diabetic rats [4]
  motor and sensory nerve conduction velocities: tended to improve (increase)
Transgenic G1H mice; Study 1
  DIFFERENCE in disease onset, treated versus vehicle: 32
Transgenic G1H mice; Study 1, 50 mg/kg i.p. daily
  DISEASE ONSET FOR COMPOUND A TREATED MICE: 221 days
Transgenic G1H mice; Study 2
  DIFFERENCE in disease onset, treated versus vehicle: 25
Transgenic G1H mice; Study 2, 50 mg/kg i.p. daily
  DISEASE ONSET FOR COMPOUND A TREATED MICE: 166 days
[5]
  FIBER NUMBER ± SEM: 79156 ± 2436
[5]; positive = fewer fibers in glaucoma eye
  PERCENT DIFFERENCE ± SEM in fiber number between glaucoma and normal eye: −1.82 ± 2.92%
[6]; 2 weeks after transection
  remaining axons relative to saline-treated rats: 3 times
[6]; [7]
  FIBER NUMBER ± SEM: 26,426 ± 13,293
  PERCENT DIFFERENCE ± SEM in fiber number between transected and normal eye: 65.3 ± 17.8%
[6]; [8]
  FIBER NUMBER ± SEM: 13,599 ± 3,519
  PERCENT DIFFERENCE ± SEM in fiber number between transected and normal eye: 82.4 ± 4.0%
